Legend:
CB1R [1] = target: T1, CB1R (Mus musculus, UniProt P47746); test: CP 55,940-induced catalepsy (bar test) in mice; format: in vivo; settings: CP55,940 0.1–3 mg/kg i.p.
T1 construct: from tissue; host or cells: living C57BL/6J mice (whole animal; brain and peripheral tissues)
Protocol: (§1) Drugs were applied in a volume of 1 μL over the course of 2 min via 33 g internal injector (P1 Technologies, Roanoke, VA, USA) connected with the 2 µL precision glass Hamilton syringe (USA) by a PE-20 tubing (Fisher Scientific, Hampton, NH, USA). The infusion rate and volume were controlled through the use of the syringe pump (model PHD 22/2000, Harvard Apparatus, Cambridge, MA, USA). Following 2 min infusion, injectors were left in place for additional 3 min to allow a passive diffusion of drugs into the tissue.
(§2) Catalepsy was assessed using the bar test described with modifications. Mice were removed from home cages and their forepaws were placed on a horizontal stainless-steel rod, 0.5 cm in diameter, positioned 3.5 cm above the bench surface. […] The arbitrary cutoff time for cataleptic mice was 60 s. Hypothermia was then evaluated by measuring core body temperature with a rectal probe (Ellab Inc., Denver, CO, USA).
(§3) To determine a working range of CP 55,940 doses that induce catalepsy and hypothermia through CB1R, a dose–response curve for CP 55,940 was constructed first. Pharmacologically naïve Cnr1^−/− and wild-type littermates were injected with increasing doses of CP 55,940 (0.1, 0.3, 1, and 3 mg/kg; i.p.) at 30 min intervals. Hypothermia and catalepsy tests were performed every 30 min before ordering the next dose of CP 55,940.

CB1R [2] = target: T1, CB1R; test: CP 55,940-induced hypothermia in mice; format: in vivo; settings: CP55,940 0.1–3 mg/kg i.p.
Protocol: as §1, §2, §3

CB1R [3] = target: T1, CB1R; test: Elevated plus maze test of anxiety-related behavior; format: in vivo; settings: 1 µg i.c.v., tested 1 h later
Protocol: as §1
Anxiety-related behavior was assessed using the elevated plus maze (EPM) test as described, with modifications. C57BL/6J mice were allowed to acclimate in their home cages for 2 h prior to the procedure. Animals received i.c.v infusion of JD5037 1 µg or vehicle and were tested in the EPM one hour later.
Mice were given 5 min to explore an elevated platform (72 cm above the floor) consisting of two opposing open and closed arms (each 30 × 5 cm) crossing each other. Illumination in the open and closed arms was 20 and 90 Lux, respectively. Mice were placed individually in the center of the platform (5 × 5 cm) facing an open arm. The behavior of each mouse was monitored by a computer-assisted video tracking system EthoVision XT (Noldus, Leesburg, VA, USA). The tested categories include total distance (cm) and average velocity (cm/s) of the run in the entire maze, cumulative duration (% of total time) spent in closed and open arms, number of entries into each closed and open arm of the maze (in-zone frequency). Arm entries were defined as crossing of the center point (located at approximately two thirds of the mouse body) into the arm. Number of entries, time spent in the open or closed arms, and distance travelled were measured by an automated HindSight software system (Hindsight, version 1.4, Hindsight Software Solutions Inc., Frisco, TX, USA).

CB1R [4] = target: T1, CB1R; test: Drinking-in-the-dark voluntary ethanol intake (20% ethanol, 4 h); format: in vivo; settings: for alcohol drinking after oral gavage: wild-type/C57BL/6J mice, oral gavage day 4 (rimonabant 10 mg/kg; JD5037 3 mg/kg; S-MRI-1867 3, 10 mg/kg; R-MRI-1867 10 mg/kg)
Protocol: as §1
The procedure was performed as described, with modifications. Mice were individually housed and acclimated to the room for 5–7 days before testing and randomly assigned to treatment groups. Starting 3 h into the dark cycle, water bottles were replaced with 20% ethanol in 25 × 100 mm glass tubes fitted with metal sippers, Access to the ethanol solution was limited to 4 h every day. […] Immediately after the drinking session, mice were deeply anesthetized with isoflurane. Blood was collected by traumatic avulsion of the orbital globe and kept for 10 min at room temperature in Eppendorf tubes followed by centrifugation at 3000× g for 10 min at 4 °C. Serum was collected and kept frozen in sealed vials at −80 °C until analysis.

CB1R [5] = target: T1, CB1R; design: method as in PMID 31105045; settings: cited from earlier work
iNOS = target: T2, iNOS (Mus musculus, UniProt P29477); test: Serum endotoxin in portal vein after acute ethanol intoxication; format: in vivo; settings: 10 mg/kg oral gavage 30 min before 6 g/kg ethanol intragastric
T2 construct: from tissue; host or cells: living C57BL/6J mice (whole animal)
Protocol: The acute intoxication was performed on 8-week-old C57BL/6J mice as developed by, with modifications. […] The animals were fasted overnight. On the day of the experiment, they were transferred to the procedure room and allowed to acclimate to the new environment for 2 h while remaining in their home cages. Animals were divided into six treatment groups. Each mouse received S-MRI-1867 10 mg/kg or R-MRI-1867 10 mg/kg or vehicle by oral gavage, followed 6 g/kg ethanol (30% w/v) or saline by the same administration route 30 min later. Mice were anaesthetized by isoflurane 90 min later and sacrificed for blood withdrawal and tissue collection. To determine endotoxin levels, blood was drawn aseptically from the portal vein without anticoagulant and clotted for 30 min at room temperature. Samples were then centrifuged at 2000× g for 15 min at room temperature. Serum was pipetted off aseptically into new sterile vials and kept frozen at −80 °C until analysis. For the collection of tissue specimens, the entire alimentary tract was removed and cleaned from the mesentery from mice treated with S-MRI-1867 and saline. Stomach and ~5 cm segments of duodenum, jejunum, ileum, and colon were dissected out, flushed three times with 20 mL ice-cold PBS, and kept in −80 °C freezer till analysis.
Serum samples were thawed and diluted 1:5 with sterile water. […]

CB1R [6] = target: T1, CB1R; test: Two-bottle free-choice alcohol preference test (15% ethanol); format: in vivo; settings: for alcohol preference and intake: daily oral gavage days 6–10 (S-MRI-1867 3, 10 mg/kg; R-MRI-1867 10 mg/kg), male C57BL/6J mice
Protocol: The procedure was performed as described, with modifications. Animals were individually housed and acclimated to the paradigm for 5–7 days by having access to two identical water bottles and handled daily to minimize the stress associated with drug testing. Animals were first subjected to a gradual increase in ethanol concentration in a drinking bottle (3%, 6%, 9%, 12%, 15%), while the other bottle contained water. The position of the bottles was changed every day, and alcohol and water bottles were replaced every 4 days. Once alcohol concentration reached 15%, animals remained on the paradigm for 10 days. Starting on day 2, mice received vehicle by oral gavage for 4 days, followed by a daily treatment with the global or peripheral CB1 antagonist (S-MRI-1867 1, 3, 10 mg/kg; R-MRI-1867 10 mg/kg,) or vehicle (control group) for another 5 days, one hour before the dark period. All animals were sacrificed for blood and tissue collection 12–16 h after treatment.

CB1R [7] = settings: cited from earlier work
[8] = CB1R-deficient (Cnr1−/−) mice, apart from the highest dose (3 mg/kg)
[9] = wild-type mice, cumulative at 30 min intervals

T1 sequence (P47746 whole entry): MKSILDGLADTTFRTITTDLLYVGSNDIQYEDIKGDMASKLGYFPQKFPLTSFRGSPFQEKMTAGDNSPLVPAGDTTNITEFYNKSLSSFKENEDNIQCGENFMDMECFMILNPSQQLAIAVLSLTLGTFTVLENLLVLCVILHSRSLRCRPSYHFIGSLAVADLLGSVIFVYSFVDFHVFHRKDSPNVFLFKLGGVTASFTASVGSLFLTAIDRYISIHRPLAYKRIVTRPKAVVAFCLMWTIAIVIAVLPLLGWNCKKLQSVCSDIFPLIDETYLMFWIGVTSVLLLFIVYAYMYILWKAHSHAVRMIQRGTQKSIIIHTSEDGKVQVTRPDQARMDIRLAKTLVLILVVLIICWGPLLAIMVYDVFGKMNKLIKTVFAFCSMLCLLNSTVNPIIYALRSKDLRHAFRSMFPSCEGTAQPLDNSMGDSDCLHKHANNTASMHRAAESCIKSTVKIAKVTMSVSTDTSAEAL

CCCCCCC(C)(C)c1ccc([C@@H]2C[C@H](O)CC[C@H]2CCCO)c(O)c1 [CP55,940]
cataleptic behavior (CB1R [1]; [8]): completely insensitive to treatment | cataleptic behavior (CB1R [1]; [9]): cataleptic behavior | decrease in body temperature (hypothermia) (CB1R [2]; [8]): completely insensitive to treatment | decrease in body temperature (hypothermia) (CB1R [2]; [9]): dose-dependent decrease in body temperature

CC(C)[C@H](N=C(NS(=O)(=O)c1ccc(Cl)cc1)N1C[C@H](c2ccccc2)C(c2ccc(Cl)cc2)=N1)C(N)=O [JD5037]
velocity in elevated plus maze (CB1R [3]; 5 min run, n = 6, mean ± s.e.m., vehicle 4.0 ± 0.4): 2.4 ± 0.4 cm/s | total distance traveled in elevated plus maze (CB1R [3]; 5 min run, n = 6, mean ± s.e.m., vehicle 1189.0 ± 111.6): 740.5 ± 130.6 cm | movement between the two closed arms (frequency) (CB1R [3]; vs vehicle): moved less frequently between the two closed arms | open arm entries and exploration (CB1R [3]; vs vehicle): failure to enter open arms | time spent in closed arms (CB1R [3]; vs vehicle): stayed much longer in the closed arms | alcohol drinking after i.c.v. infusion (CB1R [4]; i.c.v. on day 4, one hour before dark period (rimonabant 2 µg; JD5037 1 µg)): ineffective in reducing alcohol drinking | alcohol drinking after oral gavage (CB1R [4]): effectively reduced alcohol drinking | effect on alcohol drinking in CB1R-deficient mice (CB1R [5]): did not occur in CB1R-deficient mice

C/C(N)=N/C(=N\S(=O)(=O)c1ccc(C(F)(F)F)cc1)N1C[C@@H](c2ccccc2)C(c2ccc(Cl)cc2)=N1 [R-MRI-1867]
alcohol-induced increase in plasma levels of LPS (portal serum endotoxin) (iNOS): similarly inhibited | alcohol preference and intake (CB1R [6]): remained unaffected | alcohol drinking after oral gavage (CB1R [4]): unaffected | CB1R activity (CB1R [7]): CB1R inactive

CC(N)=NC(=NS(=O)(=O)c1ccc(C(F)(F)F)cc1)N1C[C@H](c2ccccc2)C(c2ccc(Cl)cc2)=N1 [S-MRI-1867]
alcohol-induced increase in plasma levels of LPS (portal serum endotoxin) (iNOS): similarly inhibited | alcohol preference and intake (CB1R [6]): effective in reducing alcohol preference and intake | total liquid consumption or food intake (CB1R [6]; daily oral gavage days 6–10, S-MRI-1867 3, 10 mg/kg): without affecting | alcohol drinking after oral gavage (CB1R [4]): inhibited alcohol consumption in a dose-dependent fashion | CB1R inhibitory potency (CB1R [7]): nanomolar

Source: PMC8399901, “Effects of a Peripherally Restricted Hybrid Inhibitor of CB1 Receptors and iNOS on Alcohol Drinking Behavior and Alcohol-Induced Endotoxemia” (Molecules, 2021)
